Where two headings read alike, the source gives them in different places.
How the values were obtained:
[1] = target: T1, β2-AR (Homo sapiens, UniProt P07550); assay type: binding
[2] = target: T1, β2-AR; details: marker [3H]-(R,R′)-2
[3] = system: Gs proteins; details: ref [2]; cited from earlier work
[4] = system: isolated rat ventricular myocytes; details: cited from earlier work
[5] = system: isolated rat ventricular myocytes; assay: cardiomyocyte contractility model; assay type: cell-based; details: initial studies, unpublished data
[6] = system: 1321N1 astrocytoma cells; assay: inhibition of proliferation of 1321N1 astrocytoma cells; assay type: cell-based; details: Homo sapiens, 1321-N1, read-out: IC50, proliferation of 1321N1 astrocytoma cells
[7] = target: β2-AR relative to the β1-AR; details: β2-AR subtype selectivity; ref [3]; cited from earlier work
[8] = system: 1321N1 astrocytoma cells; details: read-out: IC50, proliferation of 1321N1 astrocytoma cells; ref [5]; cited from earlier work

T1 sequence (P07550 whole entry): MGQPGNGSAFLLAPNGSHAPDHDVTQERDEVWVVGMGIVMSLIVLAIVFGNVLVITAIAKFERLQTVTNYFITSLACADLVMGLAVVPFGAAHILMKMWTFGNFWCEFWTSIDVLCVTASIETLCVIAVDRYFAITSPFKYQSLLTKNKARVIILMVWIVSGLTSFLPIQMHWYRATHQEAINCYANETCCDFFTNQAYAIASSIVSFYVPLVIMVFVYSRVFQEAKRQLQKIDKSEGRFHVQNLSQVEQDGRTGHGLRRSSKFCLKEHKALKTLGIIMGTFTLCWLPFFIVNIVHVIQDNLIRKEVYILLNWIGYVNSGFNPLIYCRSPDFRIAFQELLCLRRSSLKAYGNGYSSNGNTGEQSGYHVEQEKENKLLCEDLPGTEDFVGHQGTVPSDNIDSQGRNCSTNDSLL

Structure (SMILES) | HS (Hill coefficient), displacement of [3H]-(R,R′)-2 [2] | HS (Hill coefficient), displacement of [3H]-CGP-12177 ([1]; marker [3H]-CGP-12177) | other results
COc1ccc(C[C@@H](C)NC[C@H](O)c2cc(O)cc(O)c2)cc1 [(R,R′)-2, (R,R′)-4′-methoxyfenoterol] | 0.80 ± 0.9 |  | HS (Hill coefficient), displacement of [3H]-CGP-12177 [1]: 0.98 ± 0.05; G protein coupling [3]: selectively signaled through Gs proteins
COc1ccc(C[C@H](C)NC[C@@H](O)c2cc(O)cc(O)c2)cc1 [(S,S′)-2] | 1.68 ± 0.54 |  | HS (Hill coefficient), displacement of [3H]-CGP-12177 [1]: 2.30 ± 0.32
CC[C@@H](Cc1ccc(O)cc1)NC[C@H](O)c1cc(O)cc(O)c1 [(R,S′)-52] | 0.87 ± 0.2 | 2.07 ± 0.4 | 
COc1ccc(C[C@@H](C)NC[C@H](O)c2cc(O)cc(O)c2)c2ccccc12 [(R,R′)-54] | 0.86 ± 0.1 | 1.07 ± 0.09 | 
COc1ccc(C[C@H](NC[C@H](O)c2cc(O)cc(O)c2)C(C)C)cc1 [(R,R′)-65, (R,R′)-5-(1-Hydroxy-2-((1-(4-methoxyphenyl)-3-methylbutan-2-yl)amino)ethyl)-benzene-1,3-diol] | 1.41 ± 0.47 |  | 
C[C@H](Cc1ccc(O)cc1)NC[C@H](O)c1cc(O)cc(O)c1 [(R,R′)-1, (R,R′)-Fenoterol] | 0.76 ± 0.1 |  | increase in contractile response ([4]; isolated rat ventricular myocytes, ref [1],[2]): 300%; G protein coupling [3]: selectively couples to Gs proteins
CCC[C@@H](Cc1ccc(OC)cc1)NC[C@H](O)c1cc(O)cc(O)c1 [(R,S′)-66, (R,S′)-5-(1-Hydroxy-2-((1-(4-methoxyphenyl)pentan-2-yl)amino)ethyl)benzene-1,3-diol] | 0.89 ± 0.14 |  | 
CC[C@@H](Cc1ccc(OC)cc1)NC[C@H](O)c1cc(O)cc(O)c1 [(R,S′)-64, (R,S′)-(+)-5-(1-Hydroxy-2-((1-(4-methoxyphenyl)butan-2-yl)amino)ethyl)benzene-1,3-diol] | 0.86 ± 0.05 |  | 
CC[C@H](Cc1ccc(OC)cc1)NC[C@H](O)c1cc(O)cc(O)c1 [(R,R′)-64, (R,R′)-(−)-5-(1-Hydroxy-2-((1-(4-methoxyphenyl)butan-2-yl)amino)ethyl)benzene-1,3-diol] | 0.82 ± 0.04 | 1.00 ± 0.11 | Ki lower than (R,R′)-52 ([1]; marker [3H]-CGP-12177): 3 fold; Ki(R,S′)/Ki(R,R′) ([1]; marker [3H]-CGP-12177, difference between (R,S′)- and (R,R′)-isomers): 50 fold; activity in the cardiomyocyte contractility model [5]: no activity; IC50 [6]: 1.5 nM; decrease in binding affinity compared with (R,R′)-2 [2]: 10 fold
CCC[C@H](Cc1ccc(OC)cc1)NC[C@H](O)c1cc(O)cc(O)c1 [(R,R′)-66, (R,R′)-5-(1-Hydroxy-2-((1-(4-methoxyphenyl)pentan-2-yl)amino)ethyl)benzene-1,3-diol] | 1.38 ± 0.32 | 0.90 ± 0.03 | 
COc1ccc(C[C@H](C)NC[C@H](O)c2cc(O)cc(O)c2)cc1 [(R,S′)-2] | 1.00 ± 0.05 |  | HS (Hill coefficient), displacement of [3H]-CGP-12177 [1]: 1.01 ± 0.14
COc1ccc(CCNC[C@@H](O)c2cc(O)cc(O)c2)cc1 [(S)-67, (S)-5-(1-Hydroxy-2-((4-methoxyphenethyl)amino)ethyl)benzene-1,3-diol] | 0.89 ± 0.03 |  | 
COc1ccc(C[C@H](C)NC[C@H](O)c2cc(O)cc(O)c2)c2ccccc12 [(R,S′)-54] | 0.90 ± 0.2 | 1.06 ± 0.02 | 
CC[C@H](Cc1ccc(O)cc1)NC[C@H](O)c1cc(O)cc(O)c1 [(R,R′)-52] | 0.93 ± 0.1 | 1.01 ± 0.01 | Kiβ1-AR/Kiβ2-AR [7]: 334; stimulation of rat cardiomyocyte contractility ([4]; ref [3]): essentially inactive; lower activity in the cardiomyocyte contractility model ([4]; relative to other tested compounds, ref [3]): > 100 fold; IC50 [8]: 1.4 nM
COc1ccc(C[C@@H](NC[C@H](O)c2cc(O)cc(O)c2)C(C)C)cc1 [(R,S′)-65, (R,S′)-(−)-5-(1-hydroxy-2-((1-(4-methoxyphenyl)-3-methylbutan-2-yl)amino)-ethyl)benzene-1,3-diol] | 1.45 ± 0.56 |  | 
COc1ccc(C[C@@H](C)NC[C@@H](O)c2cc(O)cc(O)c2)cc1 [(S,R′)-2] | 0.86 ± 0.13 |  | 
COc1ccc(CCNC[C@H](O)c2cc(O)cc(O)c2)cc1 [(R)-67, (R)-(−)-5-(1-Hydroxy-2-((4-methoxyphenethyl)amino)ethyl)benzene-1,3-diol] | 1.59 ± 0.50 | 1.80 ± 0.70 | Ki lower than (S)-67 [2]: 10 fold
C[C@@H](Cc1ccc(O)cc1)NC[C@H](O)c1cc(O)cc(O)c1 [(R,S′)-1] | 0.97 ± 0.1 | 0.81 ± 0.1 | 
